In US9994623B2, “Entomotoxic polypeptides” (INSTITUT NATIONAL DE LA RECHERCHE AGRONOMIQUE, priority 2013, dated 2018):
Bridge positions count the residues as written; N and C are the ends. Ends that are not written are not given here. Peptide text beside a SMILES is read from it.

Columns and labels:
[1] = test system: Spodoptera frugiperda Sf9 cells; test: Entomotoxicity (LC50) on cultured Sf9 cells, Celltiter-Blue viability test; type: cell-based; conditions: for toxicity / entomotoxic properties (in words): Sf9 cells, compared with reference PA1b
Method: The entomototoxic properties were determined by evaluation of the LC50 (50% lethal concentration) on cultures of Spodoptera frugiperda Sf9 cells, as described by Rahioui et al. (Biochimie, 89, 1539-43, 2007). The cells were cultured at 27° C. in medium from Lonza supplemented with 5% fetal calf serum (FCS) and 0.1% gentamicin, then seeded into 96-well plates, 24 h before the experiments (15,000 cells/wells) and exposed to increasing concentrations of synthetic peptide. After 24 h, the cell viability was determined using the Celltiter-Blue viability test (Promega), in accordance with the manufacturer's instructions. After the addition of the dye, the cells were incubated at 27° C. for 4 h. The absorbance was then measured at 570 and 600 nm using a microplate reader (MR 7000, Dynatech Laboratories Inc., USA).

PA1b-binding site = test: Affinity for the PA1b-binding site, ligand binding assay with 125I-labeled toxin; conditions: ligand binding with toxin labeled with iodine 125I; dash = no binding in the range of concentrations tested
Method: The affinity for the PA1b-binding site was determined by means of ligand binding assays using a toxin labeled with iodine ^125I, as previously described (Gressent et al., Eur J Biochem, 270, 2429-35, 2003).

Molecule	toxicity / entomotoxic properties (in words) [1]	Ki (PA1b-binding site) [µM]	toxicity relative to PA1b ([1]; fold versus pea PA1b)
CC[C@H](C)[C@@H]1NC(=O)CNC(=O)[C@H](CO)NC(=O)[C@@H](NC(=O)[C@H](CC(=O)O)NC(=O)[C@H](C)N)CSSC[C@@H]2NC(=O)[C@H](CC(=O)O)NC(=O)[C@H](CO)NC(=O)[C@H](CO)NC(=O)[C@H](CCCNC(=N)N)NC(=O)[C@@H]3CSSC[C@@H](C(=O)N[C@H](C(=O)N[C@@H](CC(N)=O)C(=O)N4CCC[C@H]4C(=O)N[C@H](C(=O)N[C@@H](CO)C(=O)O)[C@@H](C)CC)[C@@H](C)CC)NC(=O)[C@H](Cc4ccccc4)NC(=O)CNC(=O)CNC(=O)[C@H]([C@@H](C)CC)NC(=O)[C@H](CC(C)C)NC(=O)[C@H](C)NC(=O)[C@H]([C@@H](C)CC)NC(=O)[C@@H]4CCCN4C(=O)[C@H]([C@@H](C)CC)NC(=O)[C@H](CSSC[C@H](NC1=O)C(=O)N[C@@H](CO)C(=O)N1CCC[C@H]1C(=O)N[C@@H](Cc1ccccc1)C(=O)N[C@@H](CCC(=O)O)C(=O)N[C@@H](CCSC)C(=O)N1CCC[C@H]1C(=O)N1CCC[C@H]1C(=O)N3)NC(=O)[C@H](CCCNC(=N)N)NC2=O [AS37] (H-ADCSGICSPFEMPPCRSSDCRCIPIALIGGFCINPIS-OH; disulfide 3-20, 7-22, 15-32 (inferred); N-terminus and C-terminus assumed)	toxicity comparable to that of the reference PA1b peptide	0.015 ± 0.002	–
CC[C@H](C)[C@@H]1NC(=O)[C@H](Cc2ccccc2)NC(=O)[C@@H]2CSSC[C@@H]3NC(=O)[C@H](C)NC(=O)[C@H](CCC(=O)O)NC(=O)CNC(=O)[C@@H](NC(=O)[C@H](CCCCN)NC(=O)[C@H](C)N)CSSC[C@H](NC(=O)CNC(=O)[C@H](CC(=O)O)NC(=O)CNC(=O)[C@H](C)NC(=O)[C@H](CC(N)=O)NC(=O)[C@H](CSSC[C@@H](C(=O)N[C@@H](C)C(=O)N[C@@H](CCC(N)=O)C(=O)N[C@@H](CC(C)C)C(=O)N[C@@H](CO)C(=O)N[C@H](C(=O)O)[C@@H](C)O)NC(=O)[C@H](Cc4ccccc4)NC(=O)CNC(=O)[C@@H]4CCCN4C(=O)[C@H](CC(C)C)NC(=O)[C@H]([C@@H](C)O)NC(=O)[C@H](CC(C)C)NC(=O)[C@H](Cc4ccc(O)cc4)NC(=O)[C@H](C)NC(=O)[C@H](CC(=O)O)NC(=O)[C@H]([C@@H](C)O)NC1=O)NC(=O)[C@H](Cc1ccccc1)NC(=O)[C@H](CC(N)=O)NC(=O)[C@H](Cc1ccccc1)NC(=O)[C@H](CCC(N)=O)NC(=O)[C@H]([C@@H](C)O)NC(=O)[C@H](CC(=O)O)NC3=O)C(=O)N[C@@H](CCCNC(=N)N)C(=O)N2 [AS40] (H-AKCGEACDTQFNFCNAGDGCRCFITDAYLTLPGFCAQLST-OH; disulfide 3-20, 7-22, 14-35 (inferred); N-terminus and C-terminus assumed)	toxicity comparable to that of the reference PA1b peptide	0.0103 ± 0.002	–
CC[C@H](C)[C@@H]1NC(=O)[C@H](C(C)C)NC(=O)[C@H](CC(C)C)NC(=O)CNC(=O)[C@H](C(C)C)NC(=O)[C@@H]2CCCN2C(=O)[C@H]([C@@H](C)CC)NC(=O)[C@@H]2CSSC[C@@H]3NC(=O)[C@H](C(C)C)NC(=O)CNC(=O)[C@H](CC(N)=O)NC(=O)[C@@H](NC(=O)[C@H](CO)NC(=O)[C@H](C)N)CSSC[C@H](NC(=O)[C@H](C)NC(=O)[C@H](CO)NC(=O)[C@H]([C@@H](C)O)NC(=O)CNC(=O)[C@H](CSSC[C@@H](C(=O)N[C@@H](CCCNC(=N)N)C(=O)N[C@@H](CC(N)=O)C(=O)N4CCC[C@H]4C(=O)N[C@@H](CO)C(=O)NCC(=O)O)NC(=O)[C@H](Cc4ccc(O)cc4)NC(=O)CNC1=O)NC(=O)[C@@H]1CCCN1C(=O)[C@@H]1CCCN1C(=O)[C@H](CCSC)NC(=O)[C@H](CCC(=O)O)NC(=O)[C@H](Cc1ccccc1)NC(=O)[C@@H]1CCCN1C(=O)[C@H](CO)NC3=O)C(=O)N[C@@H](CCCNC(=N)N)C(=O)N2 [PA1b, reference compound] (H-ASCNGVCSPFEMPPCGTSACRCIPVGLVIGYCRNPSG-OH; disulfide 3-20, 7-22, 15-32 (inferred); N-terminus and C-terminus assumed)	–	0.017 ± 0.0011	–
ASCPNVGAVCSPFETKPCGNVKDCRCLPWGLFFGTCINPTG (disulfide 3-24, 10-26, 18-36) [AG41]	–	0.0013 ± 0.0006	close to ten times higher than that of PA1b
DECWGPCSVLQTPPCPLSKCYCIPLFLVVGYCSHASS [DS37]	do not have entomotoxic properties	0.694 ± 0.002	–
EFCSSVGSFCSPFNTNPCGYLGNCRCVPYYLYGGTCENPFG (disulfide 3-24, 10-26, 18-36 (inferred)) [EG41]	toxicity comparable to that of the reference PA1b peptide	0.0728 ± 0.0027	–
GQCARVGMRCSRALPNPCGDIVTCRCVHLHLVGSTCIDYTGDGL [GL44]	do not have entomotoxic properties	–	–
QSCIGFCSVFDSKPLCGSSRCRCNKPLNNPFVGICERRPST [QT41]	do not have entomotoxic properties	–	–
